One molecule from paper PMC9781916, “Antipsychotic- and Anxiolytic-like Properties of a Multimodal Compound JJGW08 in Rodents” (International Journal of Molecular Sciences, 2022) can be followed below.

Test [1] concerns rats. As to the kind of experiment: Open field test after MK-801 administration in rats (MK-801-induced hyperlocomotion). It counts as in vivo. The settings on record: doses 1–30 mg/kg ip, MK-801 0.3 mg/kg ip. As to the method:
Figure 4 The effect of JJGW08 and clozapine on MK-801-induced hyperlocomotion in rats. After the habituation period (30 min, 24 h before the test), locomotor activity was measured individually for each animal in the special apparatus. The walked distance (cm) was monitored at 10-min intervals for 30 min, using a computerized system that tracked the animals’ movement and behavior. JJGW08 and clozapine were administered intraperitoneally (ip) 30 or 60 min before the test, respectively, while MK-801 (0.3 mg/kg) was administered ip 15 min before the start of the experiment. The control group received 0.9% NaCl solution (ip) (or 1% Tween (ip) for clozapine) and MK-801 (0.3 mg/kg, ip). Values are expressed as mean ± SD, n = 7–8 rats per group. Statistical analysis: one-way ANOVA (Newman–Keuls post hoc) * p < 0.05, ** p < 0.01, *** p < 0.001.
The experiment was evaluated according to the method described earlier. It was performed in a soundproof chamber with a 30-min habituation period 24 h before the procedure. The open field apparatus consisted of four black, octagonal, stainless steel arenas (diameter: 80 cm) with 30 cm high walls. Each arena was divided into a peripheral and central sector. The peripheral sector was defined as the region within 20 cm from the walls. The approximate light intensity was 15 lx in the central point of the arena and 4 lx close to its walls.
Individual rats were placed in the central part of the open field and allowed to explore the whole arena for 30 min under dim light (approximately 10 lx) and continuous white noise (65 dB). Forward locomotion (cm/30 min) was registered in 10-min intervals for 30 min and analyzed with the aid of a computerized video tracking system (Videomot, TSE, Bad Homburg, Germany). The arenas were cleaned between tests with 20% (v/v) alcohol and allowed to dry.
The tested compound was administered ip 30 min before the experiment at the dose range of 0.3–30.0 mg/kg, and MK-801 (0.3 mg/kg,) was administered ip 15 min before the procedure. […]

Test [2] concerns mice. Put plainly: Amphetamine-induced hyperlocomotion test in mice. It is filed as in vivo. The settings on record: doses 0.3–2.5 mg/kg ip, amphetamine 2.5 mg/kg sc. The method, then:
Locomotor activity was recorded in actometers separately for each mouse. After 30 min of adaptation, the number of crossings of photo beams was measured during 60 min. […] MK-801 (0.2 mg/kg, ip) was administered 15 min before the experiment, while amphetamine (2.5 mg/kg) was administered subcutaneously (sc) 30 min before the experiment. […] Values are expressed as means ± SD, n = 8–10 mice per group. Statistical analysis: one-way ANOVA (Newman–Keuls post hoc), * p < 0.05, ** p < 0.01, *** p < 0.001.
The test was performed according to the method described by Carlsson et al.. The mobility of the animals was measured in actometers, i.e., in plastic Opto M3 cages (22 × 12 × 13 cm) connected to a computer with MultiDevice Software v.1.30 (Columbus Instruments, Columbus, OH, USA). The experimental cages were equipped with infrared sources on one side and sensors receiving the emitted rays on the other side of the cage. The crossing of each beam of infrared rays was classified as motor activity. The animals were placed individually in experimental cages immediately after administration of the tested compound, 30 min before the start of the test, to adapt to the new conditions and exclude the occurrence of hyperactivity caused by the change of the environment. Spontaneous locomotor activity was measured every 5 min for 60 min. Mice received two injections: of the tested compound or reference substance (30 min before the test, ip) and of amphetamine (2.5 mg/kg, 30 min before the test, sc) or MK-801 (0.2 mg/kg, 15 min before the test, ip). Control groups received an injection of saline and amphetamine or MK-801, or two injections of saline, respectively. Olanzapine was used as a reference compound.

For the molecule `COc1ccccc1N1CCN(CCCCCOc2ccccc2C(N)=O)CC1.Cl` [JJGW08, 2-{5-[4-(2-metoksyfenylo)piperazin-1-ylo]pentoxy}benzamide hydrochloride], the “reduction of MK-801-induced hyperlocomotion in the open field” value in test [1] is 36–82%. Also, the “reduction of amphetamine-induced hyperlocomotion” value in test [2] is recorded as 52–82%.
